Results taken from ChEMBL document CHEMBL1155000, “Discovery of a novel series of Notch-sparing gamma-secretase inhibitors” (Bioorg Med Chem Lett, 2008).

Assays:
[1] = Inhibition of gamma-secretase expressed in CHO cells expressing wild type human recombinant APP assessed as reduction in amyloid beta40 production
[2] = (§1) Inhibition of mouse notch expressed in CHO cells assessed as transactivation of soluble alkaline phosphatase reporter system; assay type: cell-based
CHO = test: as §1; assay type: cell-based
[3] = Selectivity ratio of EC50 for gamma-secretase to EC50 for mouse notch

Structure (SMILES)	EC50 [1]	other results
CC[C@H](C)[C@@H](CO)NS(=O)(=O)c1cc(Cl)cc(Cl)c1	23.5 µM	–
CC[C@@H](C)[C@@H](CO)NS(=O)(=O)c1ccc(Cl)cc1	0.758 µM	–
CC[C@H](C)[C@@H](CO)NS(=O)(=O)Nc1ccc(Cl)cc1	> 30 µM	–
CC[C@H](C)[C@@H](CO)NCc1ccc(Cl)cc1	> 100 µM	–
CC(C)[C@H](O)C(=O)N[C@@H](C)C(=O)N[C@@H]1C(=O)N(C)CCc2ccccc21	0.028 µM	EC50 [2]: 0.063 µM
CC[C@H](C)[C@@H](CO)NS(=O)(=O)c1ccc(S(C)(=O)=O)cc1	> 100 µM	–
CC[C@H](C)[C@@H](CO)NS(=O)(=O)c1ccccc1	4.15 µM	–
CC(C)[C@@H](CO)NS(=O)(=O)c1ccc(Cl)cc1	4.58 µM	–
O=S(=O)(N[C@H](CO)C1CCCCC1)c1ccc(Cl)cc1	1.12 µM	–
CC[C@H](C)[C@@H](CO)NS(=O)(=O)c1ccc([N+](=O)[O-])cc1	20.9 µM	–
O=S(=O)(N[C@H](CO)c1ccccc1)c1ccc(Cl)cc1	68.8 µM	–
CC[C@H](C)[C@@H](CO)NS(=O)(=O)c1cc(Cl)ccc1Cl	54.8 µM	–
CC[C@H](C)[C@@H](CO)NS(=O)(=O)c1cccc(Cl)c1	18.3 µM	–
CC[C@H](C)[C@@H](CO)NC(=O)Cc1ccc(Cl)cc1	> 100 µM	–
CC[C@@H](CO)NS(=O)(=O)c1ccc(Cl)cc1	> 100 µM	–
CC(C)(C)[C@@H](CO)NS(=O)(=O)c1ccc(Cl)cc1	29.1 µM	–
CC[C@H](C)[C@@H](CO)NS(=O)(=O)c1ccc(OC(F)(F)F)cc1	23.5 µM	–
C[C@H](NC(=O)[C@@H](O)c1cc(F)cc(F)c1)C(=O)N[C@@H]1C(=O)N(C)N=Cc2ccccc21	0.0003 µM	Ratio EC50 (CHO): 0.5
CC[C@H](C)[C@@H](CO)NS(=O)(=O)c1ccc(C(F)(F)F)cc1	13.1 µM	–
CC[C@H](C)[C@@H](CO)NS(=O)(=O)c1cccc(Cl)c1Cl	4.27 µM	–

Structure (SMILES)	EC50 [1]	other results
CCCNC(=O)OC[C@@H](C)N(c1cc(Cl)ccc1CO)S(=O)(=O)c1ccc(Cl)cc1	0.085 µM	–
C[C@@H](CO)NS(=O)(=O)c1ccc(Cl)cc1	> 100 µM	–
CC(C)C[C@@H](CO)NS(=O)(=O)c1ccc(Cl)cc1	15.3 µM	–
CC[C@H](C)[C@@H](CO)NC(=O)Nc1ccc(Cl)cc1	47.3 µM	–
CC[C@H](C)[C@@H](CO)NC(=O)c1ccc(Cl)cc1	> 100 µM	–
CC[C@H](C)[C@@H](CO)NS(=O)(=O)c1ccc(C)cc1	14.3 µM	–
CCOC(=O)N1CCC(c2ccccc2)(S(=O)(=O)c2ccc(Cl)cc2)CC1	12.2 µM	EC50 [2]: 0.746 µM; Ratio EC50 [3]: 8.8
CC[C@H](C)[C@@H](CO)NS(=O)(=O)c1ccc(C(C)=O)cc1	6.02 µM	–
CC[C@H](C)[C@@H](CO)NS(=O)(=O)c1ccc(C#N)cc1	> 100 µM	–
CC[C@H](C)[C@@H](CO)NS(=O)(=O)c1ccccc1Cl	56.6 µM	–
CC[C@H](C)[C@@H](CO)NS(=O)(=O)c1ccc(Cl)c(F)c1	7.84 µM	–
CC[C@H](C)[C@H](NS(=O)(=O)c1ccc(Cl)cc1)C(C)O (some centres undefined)	49.3 µM	–
CCC(CC)[C@@H](CO)NS(=O)(=O)c1ccc(Cl)cc1	0.294 µM	EC50 [2]: 4.09 µM; Ratio EC50 [3]: 13.9
CC[C@H](C)[C@@H](CO)NS(=O)(=O)c1ccc(Cl)cc1	5.45 µM	EC50 [2]: 20 µM
CC[C@H](C)[C@@H](CO)NS(=O)(=O)c1ccc(Br)cc1	2.21 µM	EC50 [2]: 20 µM
CC[C@H](C)[C@H](NS(=O)(=O)c1ccc(Cl)cc1)C(=O)O	> 100 µM	–
CC[C@H](C)[C@@H](CO)NS(=O)(=O)c1ccc(F)cc1	4.24 µM	–
CC[C@H](C)[C@@H](CO)NS(=O)(=O)c1ccc(Cl)c(Cl)c1	37 µM	–
C[C@H](c1ccc(F)cc1CCCC(=O)O)N(c1cc(F)ccc1F)S(=O)(=O)c1ccc(Cl)cc1	0.007 µM	Ratio EC50 [3]: 15
CC[C@H](C)[C@H](NS(=O)(=O)c1ccc(Cl)cc1)C(C)(C)O	> 100 µM	–
